Holding throughout (parameters): species or system SD rats
The target in one experiment is T1, serotonin 2 receptor (Rattus norvegicus, UniProt P14842).
T1 construct: To the receptor fraction of the cerebral cortex were added a test compound and 0.3 nM of [^3H] ketanserin; from tissue; host or cells: rat cerebral cortex membrane fraction
As to the kind of experiment: Binding test on [3H] ketanserin, cerebral cortex receptor fraction. Conditions: 0.3 nM [3H] ketanserin, 37° C. 15 min, read-out: 5HT2.

A further experiment concerns the target α1 adrenalin receptor. As to the kind of experiment: Binding test on [3H] prazosin, cerebral cortex receptor fraction. The settings on record: rat cerebral cortex receptor fraction, about 0.2 nM [3H] prazosin, room temperature 60 min; read-out: α 1.
The next experiment has as its target T2, serotonin 1A receptor (Rattus norvegicus, UniProt P19327).
T2 construct: To the receptor fraction of the hippocampus were added a test compound and 0.5 nM of [^3H]; 8-hydroxy-dipropylaminotetralin; from tissue; host or cells: rat hippocampus membrane fraction
T2 sequence (P19327 1-422): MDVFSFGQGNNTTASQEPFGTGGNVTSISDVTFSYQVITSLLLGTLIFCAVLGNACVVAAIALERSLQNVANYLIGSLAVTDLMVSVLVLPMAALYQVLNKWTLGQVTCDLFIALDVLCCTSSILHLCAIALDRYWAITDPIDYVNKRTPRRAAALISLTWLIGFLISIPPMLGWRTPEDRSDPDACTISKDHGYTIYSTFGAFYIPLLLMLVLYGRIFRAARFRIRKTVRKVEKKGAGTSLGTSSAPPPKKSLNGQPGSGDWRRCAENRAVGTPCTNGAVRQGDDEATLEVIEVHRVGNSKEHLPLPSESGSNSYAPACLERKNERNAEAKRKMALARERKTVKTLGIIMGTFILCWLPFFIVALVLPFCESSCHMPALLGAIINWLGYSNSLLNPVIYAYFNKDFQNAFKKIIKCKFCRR
As to the kind of experiment: Binding test on [3H] 8-hydroxy-dipropylaminotetralin, hippocampus receptor fraction. Conditions: rat hippocampus receptor fraction, 0.5 nM [3H] 8-OH-DPAT, room temperature 30 min; read-out: 5HT1.

Where a name gives a salt, the structure may show the parent alone.

T1 sequence (P14842 whole entry): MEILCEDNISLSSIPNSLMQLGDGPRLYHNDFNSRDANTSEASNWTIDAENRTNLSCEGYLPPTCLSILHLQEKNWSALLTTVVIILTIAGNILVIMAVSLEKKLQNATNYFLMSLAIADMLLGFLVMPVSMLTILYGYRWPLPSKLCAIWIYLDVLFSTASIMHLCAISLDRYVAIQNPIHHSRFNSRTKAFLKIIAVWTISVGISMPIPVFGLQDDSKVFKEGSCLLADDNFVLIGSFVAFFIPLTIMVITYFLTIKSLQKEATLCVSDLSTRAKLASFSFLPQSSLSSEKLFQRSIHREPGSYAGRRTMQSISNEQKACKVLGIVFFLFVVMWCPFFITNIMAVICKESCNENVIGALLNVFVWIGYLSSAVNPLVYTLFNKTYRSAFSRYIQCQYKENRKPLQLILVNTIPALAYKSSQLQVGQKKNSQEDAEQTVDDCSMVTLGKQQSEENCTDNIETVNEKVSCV
Procedure for α1 adrenalin receptor: As radioisotope-labeled compounds, use was made of the following reagents (mfd. by NEN). • 3) [^3H] […] Prazosin.
Use was made of SD rats aged 6 to 8 weeks.
The rats were sacrificed by dcapitation to extirpate the cerebra.
Each mixture was homogenized by using a Teflon glass homogenizer and centrifuged as 1,000× g for 10 min. The supernatant thus obtained was further centrifuged at 20,000× g for 20 min. […] After centrifuging at 20,000× g for 20 min, the obtained precipitate was further suspended and centrifuged twice each in the same manner. […] This receptor fraction was stored at −80° C. until using.
IC50 was calculated by the probit method, while Ki was determined in accordance with the following formula: Ki=IC50(1+c/Kd) wherein c represents the concentration of the radioisotope-labeled compound, and Kd represents the dissociation constant of the radioisotope-labeled compound with respect to the receptor determined by Scatchard's analysis. (Binding test on [^3H] prazosin)
To the receptor fraction of the cerebral cortex were added a test compound and about 0.2 nM of [^3H] prazosin and the resultant mixture was incubated at room temperature for 60 min. Next, it was filtered through a glass filter with the use of a cell harvester. After washing the glass filter with 50 mM Tris hydrochloride (pH 7.4), the radioactivity of the receptor was measured with a liquid scintillation counter. The binding detected in the presence of 10 μM of phentolamine was referred to as the nonspecific binding.

`CCN1CCN(c2nc(CCCCOCc3ccccc3)cc3ccccc23)CC1` [Example 1, 3-(4-benzyloxybutyl)-1-(4-ethylpiperazin-1-yl)isoquinoline Dihydrochloride]: the results for the Ki at serotonin 2 receptor, at α1 adrenalin receptor and at serotonin 1A receptor were 36.4 nM, > 2000 nM and 21.2 nM, respectively.

`CCN1CCN(c2nc(-c3ccc(OC)cc3OC)cc3ccccc23)CC1` [Example 12, 3-(2,4-dimethoxyphenyl)-1-(4-ethylpiperazin-1-yl)isoquinolin Dihydrochloride]: the Ki is 5.32 nM on serotonin 2 receptor, 4110 nM on α1 adrenalin receptor and 140 nM on serotonin 1A receptor.

As for `CCC(O)c1ccc(-c2cc3ccccc3c(N3CCN(CC)CC3)n2)cc1` (stereo not drawn) [Example 19, 1-(4-ethylpiperazin-1-yl)-3-[4-(1-hydroxypropyl)phenyl]isoquinoline hydrochloride], the results for the Ki at serotonin 2 receptor, at α1 adrenalin receptor and on serotonin 1A receptor were 1.6 nM, 373 nM and 6.9 nM, respectively.

As for `CCN1CCN(c2nc(-c3ccc(CCCO)cc3)cc3ccccc23)CC1` [Example 20, 1-(4-ethylpiperazin-1-yl)-3-[4-(3-hydroxypropyl)phenyl]isoquinoline hydrochloride], the values for the Ki on serotonin 2 receptor, on α1 adrenalin receptor and on serotonin 1A receptor were 2.6 nM, 868 nM and 14.5 nM, respectively.

Turning to `CCCC(O)c1ccc(-c2cc3ccccc3c(N3CCN(CC)CC3)n2)cc1` (stereo not drawn) [Example 21, 1-(4-ethylpiperazin-1-yl)-3-[4-(1-hydroxybutyl)phenyl]isoquinoline oxalate], the Ki came out at 4.3 nM on serotonin 2 receptor, 636 nM at α1 adrenalin receptor and 17.2 nM on serotonin 1A receptor.

For the compound `CCN1CCN(c2nc(-c3ccc(CCC(C)O)cc3)cc3ccccc23)CC1` (stereo not drawn) [Example 22, 1-(4-ethylpiperazin-1-yl)-3-[4-(3-hydroxybutyl)phenyl]isoquinoline oxalate], the results for the Ki on serotonin 2 receptor, on α1 adrenalin receptor and on serotonin 1A receptor were 1.5 nM, 3100 nM and 9.4 nM, respectively.

Consider `CCN1CCN(c2nc(-c3ccc(CCCCO)cc3)cc3ccccc23)CC1` [Example 23, 3-[4-(4-hydroxybutyl)phenyl]-1-(4-ethylpiperazin-1-yl)isoquinoline hydrochloride], for which the Ki at serotonin 2 receptor was determined as 6.4 nM; on α1 adrenalin receptor it was 1250 nM; on serotonin 1A receptor, 16.8 nM.

As to `CCN1CCN(c2nc(-c3ccc(CCCO)c(F)c3)cc3ccccc23)CC1` [Example 29, hydrochloride], the Ki was found to be 3.5 nM on serotonin 2 receptor, 668 nM on α1 adrenalin receptor and 9.6 nM at serotonin 1A receptor.

With `CCN1CCN(c2nc(-c3ccc(CCCO)c(C#N)c3)cc3ccccc23)CC1` [Example 32, 3-[3-cyano-4-(3-hydroxypropyl)phenyl]-1-(4-ethylpiperazin-1-yl)isoquinoline hydrochloride], the values for the Ki on serotonin 2 receptor, at α1 adrenalin receptor and at serotonin 1A receptor were 7.8 nM, 500 nM and 10.1 nM, respectively.

Consider `CCN1CCN(c2nc(-c3ccc(CCCO)c(OC)c3)cc3ccccc23)CC1` [Example 33, 1-(4-ethylpiperazin-1-yl)-3-[4-(3-hydroxypropyl)-3-methoxyphenyl]isoquinoline hydrochloride], for which the results for the Ki at serotonin 2 receptor, at α1 adrenalin receptor and at serotonin 1A receptor were 10.9 nM, 758 nM and 7.9 nM, respectively.

As to `CCN1CCN(c2nc(-c3ccc(OCCO)cc3)cc3ccccc23)CC1` [Example 36, 1-(4-ethylpiperazin-1-yl)-3-[4-(2-hydroxyethoxy)phenyl]isoquinoline dihydrochloride], the Ki on serotonin 2 receptor was 3.9 nM; on α1 adrenalin receptor, 1220 nM; on serotonin 1A receptor, 18.8 nM.

For `CCN1CCN(c2nc(-c3ccc(OCCOC)cc3)cc3ccccc23)CC1` [Example 42, 1-(4-ethylpiperazin-1-yl)-3-[4-(2-methoxyethoxy)phenyl]isoquinoline dihydrochloride], the Ki at serotonin 2 receptor was determined as 4.4 nM; at α1 adrenalin receptor, 2450 nM; on serotonin 1A receptor, 33.1 nM.

For the compound `CCN1CCN(c2nc(-c3ccc(OCCF)cc3)cc3ccccc23)CC1` [Example 45, 1-(4-Ethylpiperazin-1-Yl)-3-[4-(2-Fluoroethoxy)Phenyl]Isoquinoline Dihydrochloride], the Ki at serotonin 2 receptor stood at 1.1 nM; on α1 adrenalin receptor, 1220 nM; at serotonin 1A receptor it was 45 nM.

With `CCN1CCN(c2nc(-c3ccc(OCCC#N)cc3)cc3ccccc23)CC1` [Example 52, 3-[4-(2-Cyanoethoxy)Phenyl]-1-(4-Ethylpiperazin-1-Yl)Isoquinoline Hydrochloride], the figures for the Ki on serotonin 2 receptor, on α1 adrenalin receptor and at serotonin 1A receptor were 0.6 nM, 555 nM and 23.5 nM, respectively.

Regarding `CCCNC(=O)c1ccc(-c2cc3ccccc3c(N3CCN(CC)CC3)n2)cc1` [Example 63, 1-(4-Ethylpiperazin-1-Yl)-3-(4-N-Propylaminocarbonylphenyl)Isoquinoline Hydrochloride], the Ki at serotonin 2 receptor came to 0.84 nM; on α1 adrenalin receptor, 252 nM; at serotonin 1A receptor it was 18.1 nM.

Take `CCCC(=O)Nc1ccc(-c2cc3ccccc3c(N3CCN(CC)CC3)n2)cc1` [Example 70, 3-(4-Propylcarbonylaminophenyl]-1-(4-Ethylpiperazin-1-Yl)Isoquinoline Hydrochloride]: the Ki stood at 5.5 nM at serotonin 2 receptor, 1260 nM at α1 adrenalin receptor and 23.3 nM on serotonin 1A receptor.

As for `CCCCS(=O)(=O)Nc1ccc(-c2cc3ccccc3c(N3CCN(CC)CC3)n2)cc1` [Example 73, 3-(4-Butylsulfonylaminophenyl)-1-(4-Ethylpiperazin-1-Yl)Isoquinoline Hydrochloride], the values for the Ki on serotonin 2 receptor, on α1 adrenalin receptor and at serotonin 1A receptor were 3.3 nM, 699 nM and 13 nM, respectively.

Take `CCN1CCN(c2nc(-c3ccccn3)cc3ccccc23)CC1` [Example 123, 1-(4-Ethylpiperazin-1-yl)-3-(2-Pyridyl)Isoquinoline Dihydrochloride]: the figures for the Ki on serotonin 2 receptor, on α1 adrenalin receptor and at serotonin 1A receptor were 29.1 nM, 553 nM and 34 nM, respectively.

For `CCN1CCN(c2nc(-c3ccc(OCCOC)nc3)cc3ccccc23)CC1` [Example 126, 1-(1-Ethylpiperazin-4-yl)-3-[2-(2-Methoxyethoxy)Pyridin-5-yl]Isoquinoline], the Ki on serotonin 2 receptor came out at 5.7 nM; on α1 adrenalin receptor, 382 nM; at serotonin 1A receptor, 26.4 nM.

Turning to `CCN1CCN(c2nc(-c3ccc(CCCOC)nc3)cc3ccccc23)CC1` [Example 139, 1-(1-Ethylpiperazin-4-yl)-3-[2-(3-Methoxypropyl)Pyridin-5-yl]Isoquinoline Oxalate], the Ki came out at 5.1 nM on serotonin 2 receptor, 374 nM on α1 adrenalin receptor and 2.7 nM on serotonin 1A receptor.

For `CCN1CCN(c2nc(-c3ccc(N4CCOCC4)cc3)cc3ccccc23)CC1` [Example 160, 3-[4-(4-morpholinyl)phenyl]-1-(4-ethylpiperazin-1-yl)isoquinoline dihydrochloride], the Ki at serotonin 2 receptor worked out at 0.7 nM; on α1 adrenalin receptor, 536 nM; on serotonin 1A receptor it was 22.2 nM.

`CCN1CCN(c2nc(-c3cnc(N4CCOCC4)s3)cc3ccccc23)CC1` [Example 173, 1-(1-ethylpiperazin-4-yl)-3-[2-(4-morpholinyl)-5-thiazolyl]isoquinoline dihydrochloride]: the results for the Ki at serotonin 2 receptor, on α1 adrenalin receptor and at serotonin 1A receptor were 4.8 nM, 284 nM and 3.9 nM, respectively.

As for `CCN1CCN(c2nc(C#Cc3ccccn3)cc3ccccc23)CC1` [Example 179, 1-(1-Ethylpiperazin-4-Yl)-3-(2-Pyridyl)Ethynylisoquinoline Oxalate], the Ki was 0.4 nM at serotonin 2 receptor, 208 nM at α1 adrenalin receptor and 5.3 nM on serotonin 1A receptor.

`CCN1CCN(c2nc(C#CCc3ccccc3)cc3ccccc23)CC1` [Example 181, 1-(1-Ethylpiperazin-4-Yl)-3-(3-Phenyl-1-Propynyl)Isoquinoline Oxalate]: the figures for the Ki at serotonin 2 receptor, on α1 adrenalin receptor and on serotonin 1A receptor were 6.7 nM, 920 nM and 17.9 nM, respectively.

In the case of `CCN1CCN(c2nc(C#Cc3ccc(OCCO)cc3)cc3ccccc23)CC1` [Example 183, 1-(1-Ethylpiperazin-4-Yl]-3-[4-(2-Hydroxyethoxy)Phenylethynyl]Isoquinoline Dihydrochloride], the Ki on serotonin 2 receptor is 3.36 nM; on α1 adrenalin receptor, 577 nM; on serotonin 1A receptor it was 14.1 nM.

With `CCN1CCN(c2nc(C#Cc3ccccc3OCCO)cc3ccccc23)CC1` [Example 187, 1-(1-Ethylpiperazin-4-Yl)-3-[2-(2-Hydroxyethoxylphenyl]Ethynylisoquinoline Oxalate], the Ki stood at 2.53 nM on serotonin 2 receptor, 969 nM at α1 adrenalin receptor and 9.81 nM at serotonin 1A receptor.

Regarding `COc1ccc(-c2cc3ccccc3c(N3CCN(CCO)CC3)n2)cc1` [Example 242, 1-[4-(2-hydroxyethyl)piperazin-1-yl]-3-(4-methoxyphenyl)isoquinoline Dihydrochloride], the Ki on α1 adrenalin receptor is 1790 nM.

`CCN1CCN(c2nc(-c3ccc(OCCO)cc3)cc3sccc23)CC1` [Example 286, dihydrochloride]: the Ki on α1 adrenalin receptor was 305 nM.

Take `CCCN1CCN(c2nc(-c3ccc(OCC(C)(C)O)cc3)cc3sccc23)CC1` [Example 289, 6-[4-(2-methyl-2-hydroxypropoxy)phenyl]-4-(4-propylpiperazin-1-yl)thieno[3,2-c]pyridine hydrochloride]: on α1 adrenalin receptor, the Ki was found to be 1310 nM.

Source of the values: patent publication US6875761B2 (Eisai Co., Ltd., priority 1997, dated 2005).
